The numbers were not newly measured in patent publication US20240058331A1, “COMBINATION THERAPIES FOR TREATMENT OF CIRRHOSIS WITH PORTAL HYPERTENSION” (priority 2022, published 2024), which cites them from elsewhere.

For data set [1] the following is noted: sedation for HVPG assessment.
For a further data set, the target named is T1, ETB (Homo sapiens, UniProt P24530).
T1 sequence (P24530 27-442): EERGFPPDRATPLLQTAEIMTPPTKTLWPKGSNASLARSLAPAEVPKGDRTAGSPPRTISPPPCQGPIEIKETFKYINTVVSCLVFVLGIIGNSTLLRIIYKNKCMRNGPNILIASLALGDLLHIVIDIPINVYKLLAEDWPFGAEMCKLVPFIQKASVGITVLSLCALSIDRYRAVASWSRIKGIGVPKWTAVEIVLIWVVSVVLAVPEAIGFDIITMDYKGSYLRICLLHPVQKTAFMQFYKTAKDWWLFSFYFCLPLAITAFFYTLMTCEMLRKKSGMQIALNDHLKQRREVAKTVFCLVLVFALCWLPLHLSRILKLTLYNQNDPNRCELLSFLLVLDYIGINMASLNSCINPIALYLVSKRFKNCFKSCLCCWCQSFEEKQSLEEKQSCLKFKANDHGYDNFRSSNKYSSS
Particulars: up to 50 mM.

The conditions of data set [2]: unlikely to be clinically relevant with standard midazolam dosing.
The conditions of data set [3]: moderate hepatic impairment vs healthy control participants; expected.

In the case of `Cc1ncc2n1-c1ccc(Cl)cc1C(c1ccccc1F)=NC2` [Midazolam], the “influence on HVPG” value in data set [1] is reported as “does not influence HVPG”.

Consider `CCOc1ccc(Cc2cc([C@@H]3O[C@H](CO)[C@@H](O)[C@H](O)[C@H]3O)ccc2Cl)cc1` [Dapagliflozin], for which the “safety or tolerability signals in participants with renal impairment” value (10 mg once daily, chronic kidney disease (DAPA-CKD) and heart failure (DAPA HF) populations) is “did not lead to any unique safety or tolerability signals”. In addition, the “tolerability in healthy volunteers” value (doses up to 100 mg for 14 days) is listed as “tolerable”.

For `COc1nc(C)cnc1NS(=O)(=O)c1cccnc1-c1ccc(-c2nnco2)cc1` [Zibotentan], the “effect at the ETB” value on ETB is “no effect”. Besides, in data set [2], the “increase in midazolam exposure” value is listed as 20%. Moreover, the “exposure, times higher in participants with moderate hepatic impairment compared to healthy control participants” value in data set [3] is listed as 1.45 times.
